# Calls of active or inactive are those of the source. The calls are words filed in the database; no cut-off is given here.
# Tests used:
# [1] = system: Rattus norvegicus; test: Inhibition of the IgE-mediated passive cutaneous anaphylaxis (PCA) reaction in rat after intravenous administration; Range 1.07-3.93; format: functional
# [2] = system: Rattus norvegicus; test: Inhibition of the IgE-mediated passive cutaneous anaphylaxis (PCA) reaction in rat after intravenous administration; Range 0.1-0.44; format: functional
# [3] = system: Rattus norvegicus; test: Inhibition of the IgE-mediated passive cutaneous anaphylaxis (PCA) reaction in rat after intravenous administration; Range 2.20-3.00; format: functional
# [4] = system: Rattus norvegicus; test: Inhibition of the IgE-mediated passive cutaneous anaphylaxis (PCA) reaction in rat after intravenous administration; Range 0.22-0.59; format: functional
# [5] = system: Rattus norvegicus; test: Inhibition of the IgE-mediated passive cutaneous anaphylaxis (PCA) reaction in rat after oral administration at concentration of 10 mg/Kg of compound; format: functional
# [6] = system: Rattus norvegicus; test: Inhibition of the IgE-mediated passive cutaneous anaphylaxis (PCA) reaction in rat after intravenous administration; Range 1.61-7; format: functional
# [7] = system: Rattus norvegicus; test: Inhibition of the IgE-mediated passive cutaneous anaphylaxis (PCA) reaction in rat after intravenous administration; Range 0.20-0.5; format: functional
# [8] = system: Rattus norvegicus; test: Inhibition of the IgE-mediated passive cutaneous anaphylaxis (PCA) reaction in rat after oral administration; Range 0.20-0.83; format: functional
# [9] = system: Rattus norvegicus; test: Inhibition of the IgE-mediated passive cutaneous anaphylaxis (PCA) reaction in rat after oral administration; Range 2.71-7.46; format: functional
# [10] = system: Rattus norvegicus; test: Inhibition of the IgE-mediated passive cutaneous anaphylaxis (PCA) reaction in rat after intravenous administration; Range 1.73-30.03; format: functional
# [11] = system: Rattus norvegicus; test: Inhibition of the IgE-mediated passive cutaneous anaphylaxis (PCA) reaction in rat after intravenous administration; Range 0.12-0.35; format: functional
# [12] = system: Rattus norvegicus; test: Inhibition of the IgE-mediated passive cutaneous anaphylaxis (PCA) reaction in rat after oral administration; Inactive at 1 and 10 mg/kg; format: functional, organism-based; parameters: dose 10 mg/kg
# [13] = system: Rattus norvegicus; test: Inhibition of the IgE-mediated passive cutaneous anaphylaxis (PCA) reaction in rat after intravenous administration; Range 0.08-1.71; format: functional
# [14] = system: Rattus norvegicus; test: Inhibition of the IgE-mediated passive cutaneous anaphylaxis (PCA) reaction in rat after oral administration; Range 2.89-3.99; format: functional
# [15] = system: Rattus norvegicus; test: Inhibition of the IgE-mediated passive cutaneous anaphylaxis (PCA) reaction in rat after intravenous administration; Range 0.014-0.029; format: functional
# [16] = system: Rattus norvegicus; test: Inhibition of the IgE-mediated passive cutaneous anaphylaxis (PCA) reaction in rat after intravenous administration; Range 0.24-1.05; format: functional
# [17] = system: Rattus norvegicus; test: Inhibition of the IgE-mediated passive cutaneous anaphylaxis (PCA) reaction in rat after intravenous administration; Range 2.22-3.63; format: functional
# [18] = system: Rattus norvegicus; test: Inhibition of the IgE-mediated passive cutaneous anaphylaxis (PCA) reaction in rat after oral administration; Range 2.47-3.45; format: functional
# [19] = system: Rattus norvegicus; test: Inhibition of the IgE-mediated passive cutaneous anaphylaxis (PCA) reaction in rat after oral administration; Range 0.182-1.56; format: functional
# [20] = system: Rattus norvegicus; test: Inhibition of the IgE-mediated passive cutaneous anaphylaxis (PCA) reaction in rat after intravenous administration; Range 0.05-0.15; format: functional
# [21] = system: Rattus norvegicus; test: Inhibition of the IgE-mediated passive cutaneous anaphylaxis (PCA) reaction in rat after intravenous administration; Range 0.047-0.108; format: functional
# [22] = system: Rattus norvegicus; test: Inhibition of the IgE-mediated passive cutaneous anaphylaxis (PCA) reaction in rat after oral administration; NA means inactive; format: functional, organism-based
# [23] = system: Rattus norvegicus; test: Inhibition of the IgE-mediated passive cutaneous anaphylaxis (PCA) reaction in rat after intravenous administration; Range 0.34-0.45; format: functional
# [24] = system: Rattus norvegicus; test: Inhibition of the IgE-mediated passive cutaneous anaphylaxis (PCA) reaction in rat after oral administration; Range 5.21-7.35; format: functional
# [25] = system: Rattus norvegicus; test: Inhibition of the IgE-mediated passive cutaneous anaphylaxis (PCA) reaction in rat after oral administration; NA means inactive at 1 and 10 mg/Kg; format: functional, organism-based
# [26] = system: Rattus norvegicus; test: Inhibition of the IgE-mediated passive cutaneous anaphylaxis (PCA) reaction in rat after intravenous administration; Range 0.12-1.07; format: functional
# [27] = system: Rattus norvegicus; test: Inhibition of the IgE-mediated passive cutaneous anaphylaxis (PCA) reaction in rat after oral administration; Range 4.65-18.7; format: functional
# [28] = system: Rattus norvegicus; test: Inhibition of the IgE-mediated passive cutaneous anaphylaxis (PCA) reaction in rat after intravenous administration; Range 1.31-4.63; format: functional
# [29] = system: Rattus norvegicus; test: Inhibition of the IgE-mediated passive cutaneous anaphylaxis (PCA) reaction in rat after oral administration; Range 12.3-33.8; format: functional
# [30] = system: Rattus norvegicus; test: Inhibition of the IgE-mediated passive cutaneous anaphylaxis (PCA) reaction in rat after oral administration; Range 0.3-10.04; format: functional
# [31] = system: Rattus norvegicus; test: Inhibition of the IgE-mediated passive cutaneous anaphylaxis (PCA) reaction in rat after intravenous administration; Range 0.072-0.41; format: functional
# [32] = system: Rattus norvegicus; test: Inhibition of the IgE-mediated passive cutaneous anaphylaxis (PCA) reaction in rat after intravenous administration; Range 1.04-1.42; format: functional
# [33] = system: Rattus norvegicus; test: Inhibition of the IgE-mediated passive cutaneous anaphylaxis (PCA) reaction in rat after oral administration; NA means Inactive; format: functional, organism-based
# [34] = system: Rattus norvegicus; test: Inhibition of the IgE-mediated passive cutaneous anaphylaxis (PCA) reaction in rat after intravenous administration; Range 2.22-5.31; format: functional
smiles,measurement,setting,value
O=C(O)c1cn2c(n1)N=S(=O)(c1ccccc1)c1ccccc1-2 (stereo not given),ED50,[1],1.92 mg/kg
Cn1c(=O)c2cc(C(=O)O)nn2c2ccccc21,ED50,[2],0.19 mg/kg
CS1(=O)=Nc2nc(C(=O)O)cn2-c2ccccc21 (stereo not given),ED50,[3],2.59 mg/kg
C[S+](=N)([O-])c1cc2nc(C(=O)O)cn2c2ccccc12 (stereo not given),ED50,[4],0.35 mg/kg
O/N=C\c1cn2c(n1)COc1ccccc1-2,Inhibition,[5],42%
CCC1Oc2ccccc2-n2cc(C(=O)O)nc21 (stereo not given),ED50,[6],2.6 mg/kg
O=C(Nc1nn[nH]n1)c1cn2c(ccc3ccccc32)n1,ED50,[7],0.31 mg/kg
same,ED50,[8],0.54 mg/kg
O=Cc1cn2c(n1)COc1ccccc1-2,ED50,[9],4.27 mg/kg
same,ED50,[10],4.79 mg/kg
O=C(O)c1cn2c(cnc3cc(Cl)c(Cl)cc32)n1,ED50,[11],0.2 mg/kg
same,ED50,[12],inactive
O=C(O)c1cc2c(O)nc3ccccc3n2n1,ED50,[13],0.33 mg/kg
COC(=O)c1cn2c(n1)COc1ccc(NC(C)=O)cc1-2,ED50,[14],3.48 mg/kg
CCCn1c(=O)c2cc(C(=O)O)nn2c2ccccc21,ED50,[15],0.023 mg/kg
O=C(Nc1nn[nH]n1)c1cn2c(cnc3ccccc32)n1,ED50,[12],inactive
same,ED50,[16],0.45 mg/kg
O=C(O)c1cn2c(n1)COc1ccccc1-2,ED50,[17],2.89 mg/kg
same,ED50,[18],3.2 mg/kg
CCn1c(=O)c2cc(-c3nn[nH]n3)cn2c2ccccc21,ED50,[19],0.44 mg/kg
CCc1ccc2c(Cl)cc3nc(C(=O)O)cn3c2c1,ED50,[20],0.09 mg/kg
CC(=O)Nc1ccc2c(c1)-n1cc(C(=O)O)nc1CO2,ED50,[21],0.073 mg/kg
same,ED50,[22],inactive
O=C(O)c1cn2c(n1)CCc1ccccc1-2,ED50,[23],0.39 mg/kg
same,ED50,[24],6.14 mg/kg
O=C(Nc1nn[nH]n1)c1cn2c(n1)COc1ccccc1-2,ED50,[25],inactive
same,ED50,[26],0.33 mg/kg
CCOC(=O)c1cn2c(cc(Cl)c3ccc(OC)cc32)n1,ED50,[27],8 mg/kg
O=C(O)c1cn2c(n1)COc1ccc([N+](=O)[O-])cc1-2,ED50,[28],2.22 mg/kg
O=C(O)c1cc2c(=O)n(-c3ccccc3)c3ccccc3n2c1,ED50,[29],18.9 mg/kg
CCOC(=O)c1cn2c(cc(Cl)c3ccc(Cl)cc32)n1,ED50,[30],1.49 mg/kg
COc1cccc2sc3nc(C(=O)O)cn3c12,ED50,[31],0.16 mg/kg
O=C([O-])c1cc(=O)c2c(OCC(O)COc3cccc4oc(C(=O)[O-])cc(=O)c34)cccc2o1.[Na+].[Na+] [CROMOLYN SODIUM],ED50,[32],1.21 mg/kg
same,ED50,[33],inactive
COc1ccc2ccc3nc(CN)cn3c2c1.Cl.Cl,ED50,[34],3.39 mg/kg
